Twelve compounds from ChEMBL document CHEMBL1126328, “The rotenoid core structure: Modifications to define the requirements of the toxophore” (Bioorg Med Chem Lett, 1992) can be followed below.

The nature of experiment [1]: Inhibition of NADH dehydrogenase in blowfly flight-muscle submitochondrial preparation. It is filed as tissue-based, Muscle tissue.
For experiment [2], the system named is Phormia regina. Briefly: Relative activity against blowfly flight muscle submitochondrial NADH dehydrogenase compared to rotenone. Conditions: Muscle tissue.
A short description of experiment [3]: Inhibition of NADH dehydrogenase in blowfly flight-muscle submitochondrial preparation experiment I. The format is tissue-based, Phormia regina, Muscle tissue.
A short description of experiment [4]: Inhibition of NADH dehydrogenase in blowfly flight-muscle submitochondrial preparation experiment II. On the set-up: species or system Phormia regina, Muscle tissue.

pIC50: −log10 of the molar value.

By pIC50 is commonly meant −log10 of the IC50, conventionally taken in molar units. High values mean a small IC50, low ones a large IC50. As for `O=C1c2ccccc2O[C@@H]2COc3ccccc3[C@H]12`, the pIC50 in experiment [1] is 5.30. Also, in experiment [2], the Relative activity stood at 0.005%.

On to `C=C(C)[C@H]1CC2=C(Cc3ccc4c(c3C2)O[C@@H]2COc3cc(OC)c(OC)cc3[C@@H]2C4=O)O1`, for which the figures for the pIC50 in experiment [3] and in experiment [4] were 9.60 and 8.82, respectively. Also, the Relative activity in experiment [2] was 100%.

The compound `COc1cc2c(cc1OC)[C@@H]1C(=O)c3ccccc3O[C@@H]1CS2` had a pIC50 in experiment [1] of 6.52. The same compound registered a Relative activity in experiment [2] of 0.083%.

The compound `COc1cc2c(cc1OC)[C@@H]1C(=O)c3ccccc3O[C@@H]1CO2` had a pIC50 in experiment [1] of 6.70. Also, the Relative activity in experiment [2] was 0.125%.

For the compound `O=C1c2ccccc2O[C@@H]2CSc3ccccc3[C@H]12`, in experiment [1], the pIC50 is 5.00. Further, the Relative activity in experiment [2] stood at 0.0025%.

In the case of `COc1cc2c(cc1OC)[C@@H]1C(=O)c3ccc4c(c3O[C@@H]1CO2)Cc1cc(C(C)C)oc1C4`, the pIC50 in experiment [1] was 8.70. For the same compound, in experiment [2], the Relative activity came to 75%.

`C=C(C)[C@H]1CC2=C(Cc3ccc4c(c3C2)O[C@@H]2COc3cc(OC)c(OC)cc3[C@H]2C4=O)O1` showed a pIC50 in experiment [1] of 9.30. The compound further showed a Relative activity in experiment [2] of 50%.

As for `COc1cc2c(cc1OC)[C@H]1[C@H](O)c3ccc4c(c3O[C@@H]1CO2)Cc1cc(C(C)C)oc1C4`, the pIC50 in experiment [1] was 6.40. Also, the Relative activity in experiment [2] was determined as 0.063%.

As for `COc1cc2c(cc1OC)[C@@H]1[C@H](O)c3ccc4c(c3O[C@@H]1CO2)Cc1cc(C(C)C)oc1C4`, the pIC50 in experiment [1] was 7.60. The compound also yielded a Relative activity in experiment [2] of 1%.

As for `COc1ccc2c(c1)O[C@@H]1COc3ccccc3[C@@H]1C2=O`, the pIC50 in experiment [1] is 5.10. The Relative activity in experiment [2] was found to be 0.0031%.

In experiment [1], `COc1cc2c(cc1OC)[C@H]1C(=O)c3ccc4c(c3O[C@@H]1CO2)Cc1cc(C(C)C)oc1C4` gave a pIC50 of 8.30. The compound also registered a Relative activity in experiment [2] of 30%.

`COc1ccc2c(c1)O[C@@H]1COc3cc(OC)c(OC)cc3[C@@H]1C2=O` [MUNDOSERONE] gave a pIC50 in experiment [1] of 7.82. In experiment [2], this compound came in with a Relative activity of 1.67%.
